Assay results published in patent US20250327032A1, “AGENT FOR AVOIDING IMMUNE RESPONSE OF TRANSGENIC CELLS” (HYPERION DRUG DISCOVERY CO., LTD., priority 2021, published 2025).

Experiments:
TNF-α = TNF-α expression level (qPCR) after introduction of GFP-tagged CAR-T plasmid; assay type: cell-based, human; settings: Jurkat E6.1; JSH-23 0.1 μM; compared to CAR-T plasmid introduced without JSH-23
Procedure: (§1) Human leukemia T cells (Jurkat E6.1) were seeded in a 6-well plate to be about 10,000 cells/cm^2. As a culture solution, RPMI1640 medium comprising 10% bovine serum was used. To this, 0.1 μM of JSH-23 was added, or for comparison, 0.1% (v/v) DMSO instead of JSH-23 was added and used.
(§2) A lipofection solution was prepared by adding Lipofectamine 2000 and GFP-tagged CAR-T plasmid to OptiMEM. The amount of plasmid was prepared to be 1 pg/cell. The prepared lipofection solution was mixed well according to the manufacturer's recommended protocol and allowed to stand at room temperature for about 15 minutes.
Next, the lipofection solution was added to the plate seeded with human leukemia T cells, and cultured in a CO2 incubator at 37° C. for about 1 day (18 hours). After culturing, all the culture solution comprising the lipofection solution was removed and replaced with a new culture solution having the same composition as before the addition of the lipofection solution. […]
cDNA was synthesized from the purified RNA using SuperScript™ III Reverse Transcriptase according to the manufacturer's protocol. qPCR was performed using the synthesized cDNA and PCR primers as well as PowerTrack™ SYBR Green Master Mix. The measured Ct value of TNF-α was normalized with the Ct value of β-actin, a housekeeping gene.

[1] = tested on: human mesenchymal stem cells; assay: Introduction of TERT plasmid by lipofection, number of viable cells; assay type: cell-based; settings: JSH-23 1 μM; TERT plasmid DNA 10 pg/cell
Procedure: Human mesenchymal stem cells were seeded in a 6-well plate to be about 10,000 cells/cm^2. As a culture solution, αMEM (+10% serum) supplemented with 1 μM of JSH-23 was used. As a control, αMEM (+10% serum) supplemented with 0.1% (v/v) DMSO instead of JSH-23 was used as a culture solution.
A lipofection solution was prepared by adding Lipofectamine RNAiMAX and TERT plasmid DNA to OptiMEM. The amount of plasmid DNA was prepared to be 10 pg/cell.
Next, the lipofection solution was added to the plate seeded with human mesenchymal stem cells, and cultured in a CO2 incubator at 37° C. for 18 hours. After culturing, all the culture solution comprising the lipofection solution was removed and replaced with a new culture solution having the same composition as before the addition of the lipofection solution.
After another 6 hours, the above lipofection solution was newly prepared, added again to the plate seeded with human mesenchymal stem cells, and cultured in a CO2 incubator at 37° C. for 18 hours. These steps were repeated so that the introduction of genes was performed a total of 4 times.
Twenty-four hours after the final introduction of genes, the cells were detached with a cell detachment solution, centrifuged at 600×g for 5 minutes using a centrifuge, to collect the cells. The collected cells were counted using a hemocytometer.

[2] = tested on: human mesenchymal stem cells; assay: Introduction of GFP mRNA with NFκB inhibitors other than nuclear translocation inhibitors (Example 12), yield of GFP-positive cells; assay type: cell-based; settings: JSH-23 1 μM; GFP mRNA 10 pg/cell
Procedure: Improvement in the yield of transgenic cells when using an NFκB inhibitor other than the NFκB nuclear translocation inhibitor of the present invention was investigated. As the NFκB inhibitors, BAY11 (IKK inhibitor), dexamethasone (IκB degradation inhibitor), and 6-amino-4-(4-phenoxyphenethylamino)quinazoline (p65 acetylation inhibitor) were used to perform introduction of genes. For comparison, introduction of gene was performed under the same conditions using JSH-23, an NFκB nuclear translocation inhibitor, instead of the above-mentioned NFκB inhibitors. The specific procedure is as follows.
Human mesenchymal stem cells were seeded in a 6-well plate to be about 10,000 cells/cm^2. […]
(§3) Twenty-four hours after the final introduction of genes, the cells were detached with a cell detachment solution, centrifuged at 600×g for 5 minutes using a centrifuge, to collect the cells. The collected cells were counted using a hemocytometer. Furthermore, the GFP-positive percentage of the collected cells was measured using a flow cytometer. The yield of the number of GFP-positive cells was calculated from the number of cells counted and the GFP-positive percentage.

[3] = tested on: Human leukemia T cells (Jurkat E6.1); assay: Introduction of GFP-tagged CAR-T plasmid by lipofection, yield of GFP-positive cells; assay type: cell-based; settings: JSH-23 0.1 μM; GFP-tagged CAR-T plasmid 1 pg/cell
Procedure: as §1
as §2, with “amount of CAR-T plasmid was” for “amount of plasmid was”
Next, the lipofection solution was added to the plate seeded with human leukemia T cells, and cultured in a CO2 incubator at 37° C. for about 1 day (18 hours). […]
as §3, with “collected and” for “detached with a cell detachment solution,”, “800 rpm” for “600×g”

Structure (SMILES): Cc1ccc(NCCCc2ccccc2)c(N)c1 [JSH-23]
- increase in the expression level of TNF-α (TNF-α): reduced
- number of viable cells compared to the control (control set to 1) [1]: ≥ 1.4 times
- number of GFP-positive (transgenic) cells relative to control (set to 1) [2]: ≥ 7 times
- number of GFP-positive cells compared to the control (control set to 1) [3]: ≥ 2 times
